Measurements reported in ChEMBL document CHEMBL5154694, “Fascaplysin derivatives binding to DNA via unique cationic five-ring coplanar backbone showed potent antimicrobial/antibiofilm activity against MRSA in vitro and in vivo” (Eur J Med Chem, 2022).
Activity calls are given as the source filed them. No cut-off for these calls is given here.

How the values were obtained:
Staphylococcus aureus [1] = assay: Antibacterial activity against methicillin-resistant Staphylococcus aureus ATCC 4330 after 16 to 18 hrs by microbroth dilution method; type: functional; conditions: time 16-18 hrs
Staphylococcus aureus [2] = assay: Bactericidal activity against methicillin-resistant Staphylococcus aureus ATCC 4330 assessed as reduction in bacterial counts at 1 to 4X MIC within 24 hrs by time-kill kinetic assay; type: functional
Staphylococcus aureus [3] = assay: Bactericidal activity against methicillin-resistant Staphylococcus aureus ATCC 4330 assessed as reduction in bacterial counts at 2X MIC within 0.5 hrs by time-kill kinetic assay; type: functional
Staphylococcus aureus [4] = assay: Bactericidal activity against methicillin-resistant Staphylococcus aureus ATCC 4330 assessed as reduction in bacterial counts at 4X MIC by time-kill kinetic assay; type: functional, organism-based
Staphylococcus aureus [5] = assay: Bactericidal activity against methicillin-resistant Staphylococcus aureus ATCC 4330 assessed as inhibition of bacterial regrowth at 2X MIC after 24 hrs by time-kill kinetic assay; type: functional, organism-based
Staphylococcus aureus [6] = assay: Induction of membrane morphological changes in methicillin-resistant Staphylococcus aureus ATCC 4330 assessed as visible cell wall fragments at 4X MIC after 2 hrs by transmission electron microscopy; type: functional
Staphylococcus aureus [7] = assay: Induction of membrane morphological changes in methicillin-resistant Staphylococcus aureus ATCC 4330 assessed as visible cell surface wrinkles at 4X MIC after 2 hrs by scanning electron microscopy; type: functional
Staphylococcus aureus [8] = assay: Induction of membrane morphological changes in methicillin-resistant Staphylococcus aureus ATCC 4330 assessed as ghost cells at 4X MIC after 2 hrs by transmission electron microscopy; type: functional
Staphylococcus aureus [9] = assay: Induction of membrane morphological changes in methicillin-resistant Staphylococcus aureus ATCC 4330 assessed as visible cell filaments at 4X MIC after 2 hrs by scanning electron microscopy; type: functional
DNA [10] = assay: Inhibition of methicillin-resistant Staphylococcus aureus ATCC 4330 genomic DNA migration at 3.125 to 6.25 ug/ml measured by electrophoretic mobility assay; type: nucleic-acid assay; conditions: dose 3.125-6.25 µg/ml
DNA [11] = assay: Binding affinity to methicillin-resistant Staphylococcus aureus ATCC 4330 DNA assessed as induction of confirmational changes at 50 ug/ml measured by Circular dichroism assay; type: nucleic-acid assay; conditions: dose 50.0 µg/ml
Staphylococcus aureus [12] = assay: Induction of membrane morphological changes in methicillin-resistant Staphylococcus aureus ATCC 4330 assessed as visible cell membrane disruption at 4X MIC after 2 hrs by transmission electron microscopy; type: functional
Staphylococcus aureus [13] = assay: Antimicrobial activity against methicillin-resistant Staphylococcus aureus ATCC 4330 infected in female ICR peritonitis mouse model assessed as reduction in bacteria in blood at 10 mg/kg, ip; type: functional
Staphylococcus aureus [14] = assay: Induction of membrane morphological changes in methicillin-resistant Staphylococcus aureus ATCC 4330 assessed as permeable cells at 1 to 4X MIC measured after 30 to 120 mins by propidium iodide staining based flow cytometry assay; type: functional; conditions: time 30-120 min
[15] = Cmax in rat plasma at 15 mg/kg, IG; type: ADME, organism-based; design: dose 15 mg/kg, route ig; conditions: po
[16] = Stability in plasma (unknown origin); type: ADME, cell-free; conditions: unidentified
[17] = Cmax in rat plasma at 3 mg/kg, iv; type: ADME, organism-based; design: dose 3 mg/kg, route iv

SMILES	MIC (Staphylococcus aureus [1]) [µg/mL]	Activity (Staphylococcus aureus [2]) [log10CFU/ml]	Activity (Staphylococcus aureus [3]) [log10CFU/ml]	Activity (Staphylococcus aureus [4])	Activity (Staphylococcus aureus [5])	further results
NC(=O)c1ccc2[nH]c3c(C(=O)c4ccccc4Br)nccc3c2c1	> 200	–	–	–	–	–
Cc1ccc2[nH]c3c(C(=O)c4ccccc4Br)nccc3c2c1	> 200	–	–	–	–	–
O=C(O)c1ccc2[nH]c3c(C(=O)c4ccccc4Br)nccc3c2c1	> 200	–	–	–	–	–
O=C(Nc1cccc2ccccc12)c1ccc2[nH]c3c(C(=O)c4ccccc4Br)nccc3c2c1	> 200	–	–	–	–	–
CCCCNC(=O)c1ccc2[nH]c3c4[n+](ccc3c2c1)-c1ccccc1C4=O.[Br-]	6.25	2	0.5	Active	Active	–
CN[C@H](CC(C)C)C(=O)N[C@H]1C(=O)N[C@@H](CC(N)=O)C(=O)N[C@H]2C(=O)N[C@H]3C(=O)N[C@H](C(=O)N[C@H](C(=O)O)c4cc(O)cc(O)c4-c4cc3ccc4O)[C@H](O)c3ccc(c(Cl)c3)Oc3cc2cc(c3O[C@@H]2O[C@H](CO)[C@@H](O)[C@H](O)[C@H]2O[C@H]2C[C@](C)(N)[C@H](O)[C@H](C)O2)Oc2ccc(cc2Cl)[C@H]1O [VANCOMYCIN]	–	2	0.1	Active	–	–
NC(=O)c1ccc2[nH]c3c4[n+](ccc3c2c1)-c1ccccc1C4=O.[Br-]	200	–	–	–	–	–
O=C1c2ccccc2-[n+]2ccc3c([nH]c4ccccc43)c21	–	–	–	Active	Active	Activity (Staphylococcus aureus [6]): Active; Activity (Staphylococcus aureus [7]): Active; Activity (Staphylococcus aureus [8]): Active; Activity (Staphylococcus aureus [9]): Active; inhibition of DNA migration (DNA [10]): Active; Activity (DNA [11]): Active; Activity (Staphylococcus aureus [12]): Active; Activity (Staphylococcus aureus [13]): Active; Activity (Staphylococcus aureus [14]): 1.11%
Cc1ccc2[nH]c3c4[n+](ccc3c2c1)-c1ccccc1C4=O	–	–	–	Active	Active	Activity (Staphylococcus aureus [6]): Active; Activity (Staphylococcus aureus [7]): Active; Activity (Staphylococcus aureus [8]): Active; Activity (Staphylococcus aureus [9]): Active; inhibition of DNA migration (DNA [10]): Active; Activity (DNA [11]): Active; Activity (Staphylococcus aureus [12]): Active; Activity (Staphylococcus aureus [14]): 1.11%
O=C1c2ccccc2-[n+]2ccc3c([nH]c4ccccc43)c21.[Cl-] [FASCAPLYSIN CHLORIDE]	0.78	2	0	–	–	Cmax [15]: 65.2 ng/mL; Stability [16]: 94.9%; Cmax [17]: 414 ng/mL
